The text below walks through data of US5563292A, “Lipoxygenase inhibitors” (Schering Corporation, priority 1990, dated 1996).

SMILES strings stand for the structures. Like-named read-outs stand apart in the source and are kept apart here.

Assay [1] has as its target T1, 5-Lipoxygenase (5-LO) (Homo sapiens, UniProt P09917).
T1 construct: Human polymorphonuclear leukocytes (neutrophils) were obtained from normal healthy volunteers by venipuncture; endogenous in cells; host or cells: human peripheral blood neutrophils (polymorphonuclear leukocytes) from healthy volunteers, intact cells
T1 sequence (P09917 1-674): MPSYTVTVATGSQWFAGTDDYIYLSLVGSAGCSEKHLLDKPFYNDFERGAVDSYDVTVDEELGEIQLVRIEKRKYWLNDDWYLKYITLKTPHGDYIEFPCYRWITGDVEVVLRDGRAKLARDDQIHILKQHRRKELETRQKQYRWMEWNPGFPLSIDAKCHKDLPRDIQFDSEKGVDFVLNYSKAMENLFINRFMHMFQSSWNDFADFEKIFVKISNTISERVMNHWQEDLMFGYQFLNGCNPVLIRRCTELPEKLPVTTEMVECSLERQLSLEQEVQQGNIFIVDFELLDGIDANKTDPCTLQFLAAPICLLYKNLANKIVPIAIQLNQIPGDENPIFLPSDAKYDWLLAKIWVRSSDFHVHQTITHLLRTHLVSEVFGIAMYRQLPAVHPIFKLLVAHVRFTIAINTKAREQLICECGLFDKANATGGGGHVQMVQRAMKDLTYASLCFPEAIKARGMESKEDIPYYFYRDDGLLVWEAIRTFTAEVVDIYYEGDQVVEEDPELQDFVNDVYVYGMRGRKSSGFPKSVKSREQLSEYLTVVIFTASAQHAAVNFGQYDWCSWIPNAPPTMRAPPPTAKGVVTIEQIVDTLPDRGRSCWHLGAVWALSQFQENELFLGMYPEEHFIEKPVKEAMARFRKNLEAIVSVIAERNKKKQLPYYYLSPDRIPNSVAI
In words: 5-Lipoxygenase Assay with Human Neutrophils (A23187-stimulated 5-HETE and LTB4 production). Type of assay: cell-based. Conditions: [14C] arachidonic acid 9 μM, A23187 1 μM. The method, then:
5-Lipoxygenase Assay with Human Neutrophils
Human polymorphonuclear leukocytes (neutrophils) were obtained from normal healthy volunteers by venipuncture and collected with heparin anticoagulant. Neutrophils were isolated by Dextran/Ficol sedimentation as described (Billah et al., J. Biol. Chem. 260, 6899-6906 (1985)). In brief, 30 ml of blood was mixed with 5 ml of dextran (Sigma) solution and kept at 37 C for 30 min. The upper white cell-rich layer was removed and 10 ml was layered on 9 ml of Ficol-Pague solution (Pharmacia) and centrifuged at 280×g for 10 min. at 5° C. The supernatant was removed and the neutrophil pellet was resuspended in HEPES buffer containing 25 mM N-2-hydroxyethylpiperazine-N^1 -2-ethanesulfonic acid (HEPES), 125 mM NaCl, 2.5 mM KCl, 0.7 mM MgCl2, […] 10 mM glucose at pH 7.4. The red cells in the suspension were lysed by hypotonic shock. The neutrophils were washed by centrifugation in HEPES buffer two times and finally resuspended at a concentration of 20×10^6 cells/ml in the presence of 1 mM CaCl2.
Neutrophils (0.2 ml of suspension) were preincubated with dimethylsulfonxide (DMSO) vehicle with or without test compound (1 μl) for 4 minutes then incubated for 5 minutes with [^14 C] arachidonic acid (Amersham, 59 Ci/mole) at a 9 μM final concentration, and the calcium ionophore A23187 (Calbiochem) at a 1 μM final concentration. These stimulants were added in 10 μl of water:ethanol (9:1). The reaction was stopped by addition of methanol (0.4 ml), and cellular debris was removed by centrifugation. Aliquots (100 ul) of the incubations were run on a Waters two pump HPLC system fitted with a DuPont Zorbax ODS, 5μ, […] Reliance Cartridge column and C18 "Guard Pak". The column was initially eluted at 2 ml/min with 80% of the mixture water:methanol:acetic acid (46:54:0.08) containing 1 mM EDTA adjusted to pH 6.0 with ammonium hydroxide (Pump A) and 20% methanol (Pump B). At 10 minutes, a linear gradient to reach 100% methanol (Pump B) at 27 minutes was established. Between 27 and 28 minutes, methanol was exchanged for the initial eluting solvent and by 35 minutes the column had been reequilibrated for the next sample. The effluent was analyzed by a continuous flow radioactivity monitor (model ROMONA-D) interfaced with a Hewlett Packard Lab Automation System for quantitation of radioactive products. These were predominantly leukotriene B4 (LTB4) which eluted at 7 minutes, and 5-hydroxyeicosatetraenoic acid (5-HETE) which eluted at 20 minutes.

The subject of assay [2] is mouse ear. In words: Arachidonic Acid Mouse Ear Test. Type of assay: in vivo. As to conditions: topical, 30 minutes prior to arachidonic acid, biopsy 1 hour after challenge. The method, then: Charles River, female, CD, (SD) BR mice, 6 weeks old, are caged 8/group and allowed to acclimate 1-3 weeks prior to use.
Arachidonic acid (AA) is dissolved in reagent grade acetone (2 mg/0.01 ml) and stored at -20° C. for a maximum of 1 week prior to use. Inflammatory reactions are induced by applying 10 μl of AA to both surfaces of one ear ([…] total).
Test drugs are dissolved in either reagent grade acetone or aqueous ethanol (only if insoluble in acetone) at the same doses selected by Opas et al., Fed. Proc. 43, Abstract 2983, p. 1927 (1984) and Young et al., J. Invest. Dermatol. 82, pp. 367-371 (1984). These doses are employed to ensure maximum responses and to overcome any difference in topical absorption which could occur with any drug applied in an aqueous ethanol vehicle. The test drug is applied 30 minutes prior to challenge with AA.
The severity of the inflammation is measured as a function of increased ear weight. A 6 mm punch biopsy is removed 1 hour after AA challenge and weighed to the nearest 0.1 mg. Mean±standard error and all possible comparisons are made via Duncan's Multiple Range Statistic.

The mark [3] stands for this setting: read-out: 5-LO inhibition, % inhibition 5-HETE.
Setting [4] is: read-out: 5-LO inhibition, % inhibition LTB4.

As to `COc1cc(OC)cc(C(C)(C)CC(C)(CCCCO)c2cc(OC)cc(OC)c2)c1` (stereo not drawn) [Formula 41, 5,7-dimethyl-5,7-bis(3,5-dimethoxyphenyl)-1-octanol], the inhibition (as a rule, the relative decrease from the control value, in per cent) at 15 µM is 99% in assay [1] (setting [3]) and 97% in assay [1] (setting [4]). Further, in assay [2] (dose 1.0 mg/ear), the “Mouse ear assay, % inhibition (ear weight)” value amounted to 72%.
As to `COc1cc(OC)cc(C(C)(C)CC(C)(CCCCOC(C)=O)c2cc(OC)cc(OC)c2)c1` (stereo not drawn) [Formula 42], the inhibition at 15 µM in assay [1] (setting [3]) came to 95%; in assay [1] (setting [4]), 100%. Moreover, the “Mouse ear assay, % inhibition (ear weight)” value in assay [2] (dose 0.5 mg/ear) is 40%.
With `COc1cc(OC)cc(C(C)(C)CC(C)(CCCC=O)c2cc(OC)cc(OC)c2)c1` (stereo not drawn) [Formula 43], the inhibition at 15 µM in assay [1] (setting [3]) and in assay [1] (setting [4]) was 97% each time.
Turning to `COC(=O)CCCC(C)(CC(C)(C)c1cc(OC)cc(OC)c1)c1cc(OC)cc(OC)c1` (stereo not drawn) [Formula 44], the inhibition at 15 µM in assay [1] (setting [3]) amounted to 98%; in assay [1] (setting [4]) it was 100%.
For `COc1cc(OC)cc(C(C)(C)CC(C)(CCCC(=O)O)c2cc(OC)cc(OC)c2)c1` (stereo not drawn) [Formula 45], in that order: 33% and 14%.
The compound `COc1cc(OC)cc(C(C)(C)CC(C)(CCCC(=O)NO)c2cc(OC)cc(OC)c2)c1` (stereo not drawn) [Formula 46] displayed an inhibition at 5 µM in assay [1] (dose 5 μM) of 63%. Moreover, the inhibition at 15 µM in assay [1] (setting [3]) stood at 99%; in assay [1] (setting [4]), 96%.
